Measurements taken from ChEMBL document CHEMBL1201862, “PubChem BioAssay data set” (2004).
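Where inhibition never reached the appropriate level, the endpoint shown equals the highest concentration tested. Otherwise, values were interpolated linearly from a five-concentration, 48-hour dose response in 96-well plates. GI50 is the concentration that inhibits growth by half.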 Activity calls are given as the source filed them. No stated cut-off is given here; in the data, active = GI50 up to about 1.1 µM and inactive = higher.

Legend:
Assay in all cases: NCI tumour cell line growth inhibition, 48 h
A549 = test system: A549
COLO 205 = test system: COLO 205
HCT-116 = test system: HCT-116
HCT-15 = test system: HCT-15
HL-60 = test system: HL-60
HOP-92 = test system: HOP-92
K562 = test system: K562
M14 = test system: M14
MOLT-4 = test system: MOLT-4
OVCAR-8 = test system: OVCAR-8
SF-268 = test system: SF-268
SF-295 = test system: SF-295
SK-MEL-5 = test system: SK-MEL-5
SNB-75 = test system: SNB-75
SW-620 = test system: SW-620
U-251 = test system: U-251
UO-31 = test system: UO-31
MCF7 = test system: MCF7
PC-3 = test system: PC-3

| SMILES | GI50 (A549) | GI50 (COLO 205) | GI50 (HCT-116) | GI50 (HCT-15) | GI50 (HL-60) | GI50 (HOP-92) | GI50 (K562) | GI50 (M14) | GI50 (MOLT-4) | GI50 (OVCAR-8) | GI50 (SF-268) | GI50 (SF-295) | GI50 (SK-MEL-5) | GI50 (SNB-75) | GI50 (SW-620) | GI50 (U-251) | GI50 (UO-31) | GI50 (MCF7) | GI50 (PC-3) |
| --- | --- | --- | --- | --- | --- | --- | --- | --- | --- | --- | --- | --- | --- | --- | --- | --- | --- | --- | --- |
| Oc1ncnc2c1sc(=S)n2-c1ccccc1 | > 100 µM (inactive) | > 100 µM (inactive) | > 100 µM (inactive) | > 100 µM | > 100 µM (inactive) | 70.3 µM (inactive) | > 100 µM (inactive) | > 100 µM (inactive) | > 100 µM (inactive) | > 100 µM (inactive) | > 100 µM (inactive) | > 100 µM (inactive) | > 100 µM (inactive) | > 100 µM (inactive) | > 100 µM (inactive) | > 100 µM (inactive) | 74.6 µM (inactive) | – | – |
| COc1ccc(C2c3c[nH]nc3CC3CCCCC32)cc1 (stereo not drawn) | 14.5 µM (inactive) | – | 17.8 µM (inactive) | 15.7 µM | 23.4 µM (inactive) | – | 22.2 µM (inactive) | 17.6 µM (inactive) | 17.7 µM (inactive) | 17.3 µM (inactive) | 18.2 µM (inactive) | – | 15.7 µM (inactive) | 13.1 µM (inactive) | 18.3 µM (inactive) | 15.5 µM (inactive) | 14 µM (inactive) | 15.2 µM (inactive) | 14.8 µM (inactive) |
| COC(=O)[C@H](C)[C@H]1CC[C@@](C)([C@H]2CC3C(C)(C)[C@H]4CCC(C)=C[C@H]4C[C@@]3(C)O2)OO1 (stereo partly drawn) | 8.24 µM (inactive) | 9.66 µM (inactive) | 10.5 µM (inactive) | 10.5 µM | 2.05 µM (inactive) | 2.86 µM (inactive) | 6.21 µM (inactive) | 12.6 µM (inactive) | 7.13 µM (inactive) | 10.7 µM (inactive) | 8.77 µM (inactive) | 14.7 µM (inactive) | 4.72 µM (inactive) | 6.14 µM (inactive) | 8.83 µM (inactive) | 13 µM (inactive) | 6.52 µM (inactive) | – | – |
| CC(=O)OC1CC2C(C)(C)OC(=O)CC(OC(C)=O)[C@]2(C)C2CCC3(C)C(=CCC3[C@H]3COC(=O)C3)[C@]12C (stereo partly drawn) | 55.6 µM (inactive) | > 100 µM (inactive) | 61.5 µM (inactive) | > 100 µM | 50.1 µM (inactive) | 26.1 µM (inactive) | 43.9 µM (inactive) | 32.7 µM (inactive) | 24.5 µM (inactive) | > 100 µM (inactive) | > 100 µM (inactive) | 41.5 µM (inactive) | > 100 µM (inactive) | 46.6 µM (inactive) | > 100 µM (inactive) | > 100 µM (inactive) | > 100 µM (inactive) | – | – |
| COC(=O)c1c2c(cc3c1CC1(Cc4cc5c(cc4C1=O)CCC5)C3)CCC2 (stereo not drawn) | 56.6 µM (inactive) | 79.3 µM (inactive) | 13.3 µM (inactive) | 42.7 µM | > 100 µM (inactive) | – | 7.94 µM (inactive) | 90.4 µM (inactive) | 5.47 µM (inactive) | 27.6 µM (inactive) | 85.9 µM (inactive) | 21.5 µM (inactive) | 10.5 µM (inactive) | 14.3 µM (inactive) | 20.8 µM (inactive) | 83.9 µM (inactive) | > 100 µM (inactive) | 24.7 µM (inactive) | 6.68 µM (inactive) |
| CC(=O)C(CN(C)Cc1ccccc1)C(c1ccccc1)c1c(O)c2ccccc2oc1=O (stereo not drawn) | > 100 µM (inactive) | > 100 µM (inactive) | > 100 µM (inactive) | > 100 µM | 52.5 µM (inactive) | 31.9 µM (inactive) | > 100 µM (inactive) | > 100 µM (inactive) | > 100 µM (inactive) | > 100 µM (inactive) | > 100 µM (inactive) | > 100 µM (inactive) | > 100 µM (inactive) | > 100 µM (inactive) | > 100 µM (inactive) | > 100 µM (inactive) | 16.6 µM (inactive) | – | – |
| CN1N(c2ccccc2)C(=O)C2=NC=C(C(=O)c3ccccc3)C(=N)C21C (stereo not drawn) | > 100 µM (inactive) | > 100 µM (inactive) | > 100 µM (inactive) | > 100 µM | > 100 µM (inactive) | > 100 µM (inactive) | > 100 µM (inactive) | > 100 µM (inactive) | > 100 µM (inactive) | – | > 100 µM (inactive) | > 100 µM (inactive) | > 100 µM (inactive) | – | > 100 µM (inactive) | > 100 µM (inactive) | > 100 µM (inactive) | > 100 µM (inactive) | > 100 µM (inactive) |
| Cc1cn2c(=O)c3ncn(C4OC(CO)C(O)C4O)c3n(C)c2n1 (stereo not drawn) | > 100 µM (inactive) | > 100 µM (inactive) | > 100 µM (inactive) | > 100 µM | > 100 µM (inactive) | > 100 µM (inactive) | > 100 µM (inactive) | > 100 µM (inactive) | > 100 µM (inactive) | > 100 µM (inactive) | > 100 µM (inactive) | > 100 µM (inactive) | > 100 µM (inactive) | > 100 µM (inactive) | > 100 µM (inactive) | > 100 µM (inactive) | > 100 µM (inactive) | – | – |
| CCCNc1ncnc2c1cnn2C | > 100 µM (inactive) | > 100 µM (inactive) | > 100 µM (inactive) | > 100 µM | > 100 µM (inactive) | > 100 µM (inactive) | > 100 µM (inactive) | > 100 µM (inactive) | > 100 µM (inactive) | > 100 µM (inactive) | > 100 µM (inactive) | > 100 µM (inactive) | > 100 µM (inactive) | 51.3 µM (inactive) | > 100 µM (inactive) | > 100 µM (inactive) | – | – | – |
| C=C1CCC2C(C)(CO)C(O)CCC2(C)C1C/C=C1/CCOC1=O (stereo not drawn) | > 100 µM (inactive) | > 100 µM (inactive) | > 100 µM (inactive) | > 100 µM | > 100 µM (inactive) | > 100 µM (inactive) | > 100 µM (inactive) | > 100 µM (inactive) | > 100 µM (inactive) | > 100 µM (inactive) | – | > 100 µM (inactive) | > 100 µM (inactive) | > 100 µM (inactive) | > 100 µM (inactive) | > 100 µM (inactive) | > 100 µM (inactive) | – | – |
| Cc1ccc(/N=N/c2c(-c3ccccc3)nn(C(=O)CC(=O)Nc3ccc(Cl)cc3)c2-c2ccccc2)cc1 | 78.9 µM (inactive) | 59.3 µM (inactive) | 61.5 µM (inactive) | 56.4 µM | 32.4 µM (inactive) | 23.9 µM (inactive) | 42.1 µM (inactive) | 65.2 µM (inactive) | 21.3 µM (inactive) | 32.1 µM (inactive) | 70.5 µM (inactive) | 24.4 µM (inactive) | 90.8 µM (inactive) | 20.6 µM (inactive) | 90.8 µM (inactive) | 40 µM (inactive) | 27.7 µM (inactive) | – | – |
| C=C1CC[C@@H]2C(C)(C)CCC[C@@]2(C)[C@@H]1Cc1cc(O)ccc1O | 5.36 µM (inactive) | 15.9 µM (inactive) | 4.62 µM (inactive) | 3.09 µM | 1.53 µM (inactive) | 2.79 µM (inactive) | 3.44 µM (inactive) | 11.8 µM (inactive) | 0.912 µM (active) | 3.88 µM (inactive) | 3.38 µM (inactive) | 10.2 µM (inactive) | 7.06 µM (inactive) | 1.95 µM (inactive) | 8.43 µM (inactive) | 3.72 µM (inactive) | 2.52 µM (inactive) | – | – |
| Cc1cc(NS(=O)(=O)c2ccc(Nc3c4ccccc4nc4c(C(=O)N5CCN(CCO)CC5)ccc(Cl)c34)cc2)no1 | > 100 µM (inactive) | > 100 µM (inactive) | > 100 µM (inactive) | > 100 µM | 60.3 µM (inactive) | > 100 µM (inactive) | 48.4 µM (inactive) | > 100 µM (inactive) | 36.3 µM (inactive) | > 100 µM (inactive) | 98.9 µM (inactive) | > 100 µM (inactive) | 36.3 µM (inactive) | 29.6 µM (inactive) | – | > 100 µM (inactive) | > 100 µM (inactive) | – | – |
| NS(=O)(=O)c1ccc(NC(=O)Cc2nc3ccccc3s2)cc1 | 20.6 µM (inactive) | 19.5 µM (inactive) | 16.6 µM (inactive) | 17.7 µM | 19.1 µM (inactive) | 16.2 µM (inactive) | 23.6 µM (inactive) | 15.7 µM (inactive) | 20.1 µM (inactive) | 20.4 µM (inactive) | 16.2 µM (inactive) | 19 µM (inactive) | 20.2 µM (inactive) | 16.4 µM (inactive) | 17.1 µM (inactive) | 15.2 µM (inactive) | 22.5 µM (inactive) | – | – |
| O=C(O)CN(c1ccccc1)S(=O)(=O)c1cccc([N+](=O)[O-])c1 | > 100 µM (inactive) | > 100 µM (inactive) | – | > 100 µM | > 100 µM (inactive) | > 100 µM (inactive) | > 100 µM (inactive) | > 100 µM (inactive) | > 100 µM (inactive) | > 100 µM (inactive) | > 100 µM (inactive) | > 100 µM (inactive) | > 100 µM (inactive) | > 100 µM (inactive) | > 100 µM (inactive) | > 100 µM (inactive) | > 100 µM (inactive) | – | – |
| CCN(CC)[C@@H]1c2cc3c(cc2C(c2cc(OC)c(O)c(OC)c2)C2C(=O)CO[C@@H]21)OCO3 (stereo partly drawn) | > 100 µM (inactive) | > 100 µM (inactive) | > 100 µM (inactive) | > 100 µM | > 100 µM (inactive) | > 100 µM (inactive) | > 100 µM (inactive) | > 100 µM (inactive) | > 100 µM (inactive) | > 100 µM (inactive) | > 100 µM (inactive) | > 100 µM (inactive) | > 100 µM (inactive) | > 100 µM (inactive) | > 100 µM (inactive) | > 100 µM (inactive) | > 100 µM (inactive) | – | – |
